Laboratory results published in patent US5654427A, “Indolocarbazole derivatives to treat a pathological condition of the prostate” (Kyowa Hakko Kogyo Co., Ltd., priority 1995, dated 1997).

Legend:
[1] = system: DU-145; experiment: growth inhibition of DU-145 prostate cancer cells (calcein fluorescence); type: cell-based; conditions: Homo sapiens, DU-145, 72 h, read-out: DU-145 C50
Method: (§1) Throughout the experiment the Tsu-Pr1 and Du-Pro1 cells were maintained in RPMI 1640 medium (GIBCO) containing 10% fetal bovine serum (Hyclone), 2 mM glutamine, 100 U/ml penicillin, and 100 μg/ml streptomycin. The PC-3 cells were maintained in Ham's F12K medium (Irvine Scientific) containing 10% fetal bovine serum (Hyclone), 2 mM glutamine, 100 U/ml penicillin, and 100 μg/ml streptomycin. All cell lines were maintained at 37° C. in a humidified atmosphere containing 5% CO2. The DU-145 cells were maintained in minimal essential medium (Gibco), containing 10% fetal bovine serum (Hyclone), 2 mM glutamine, and no antibiotics.
(§2) Tests for growth inhibition by the candidate compounds were conducted by the following procedure. In each well of a 96-well plate (Falcon) were placed 2,500 cells in 0.1 ml of medium. The cultures were incubated overnight after which a 0.1 ml aliquot of culture medium was added to each well. […] Other control wells received medium without any K-252a derivative compounds. Incubation was continued for three days. On day three the number of cells in each well was measured using a calcein fluorescence assay (Bozyczko-Coyne et al. J. Neurosci. Meth. 50, 205-216 (1993)).
(§3) Calcein AM (Molecular Probes, Eugene, Oreg.), an analog of the viable dye fluorescein diacetate, is taken up by cells and cleaved intracellularly to fluorescent salts that are retained by intact membranes of viable cells. This method thus provides a reliable and quantitative measurement of cell survival. Calcein AM was diluted 2× in Dulbeccos phosphate buffered saline (D-PBS) to 2× the final assay concentration (6 μM) and 100 μl was added to culture wells containing 100 μl of medium. The plates were then incubated for 1 hour at 37° C. Cells were then washed 4 times with D-PBS to remove excess calcein not taken up by cells. The plate was read using a Millipore plate reading fluorimeter (Cytofluor 2350) at emission=485 nm and excitation=538 nm. After subtraction of blank values (wells containing medium but no cells), relative fluorescent values reflect a quantitative measurement of cell survival.
(§4) The number of cells in the wells containing functional derivatives was compared to the number of cells in the control wells. The concentration which inhibited cell growth by 50% was calculated and is referred to as the "IC50 ".

[2] = system: Du-Pro1; experiment: growth inhibition of Du-Pro1 prostate cancer cells (calcein fluorescence); type: cell-based; conditions: Homo sapiens, 72 h, read-out: Du-Pro1 IC50
Method: as §1, §2, §3, §4

[3] = system: protein kinase C; conditions: background; cited from earlier work
[4] = system: phosphorylase kinase; conditions: background; cited from earlier work
[5] = body weight and weight of peripheral organs in sexually immature mice; conditions: for Body Weight: Table 4, TEPBS 31.5 ± 0.8; for Heart weight / Testes weight / Lung weight / Stomach weight / Kidney weight / Liver weight: Table 5; for Heart weight: TEPBS 171 ± 8.4; for Testes weight: TEPBS 202 ± 6; for Lung weight: TEPBS 230 ± 15.9; for Stomach weight: TEPBS 294 ± 22; for Kidney weight: TEPBS 576 ± 22; for Liver weight: TEPBS 1937 ± 75
Text: (§5) The following animal model can be used to test the efficacy of a functional derivative for treatment of a proliferative prostate condition. Sexually immature male mice of 15-20 g each (Charles River Laboratories, Raleigh, N.C.) were used in the following in vivo study. The mice were allowed at least 3 days after purchase to acclimate before being used in any experiments.
(§6) Each test group contained 12 mice. […] At the end of the 21 day dosing period the mice were sacrificed and whole body blood, dorsal prostate, ventral prostate, coagulating glands, seminal vesicles, heart, liver, stomach, lung, kidneys and testes were collected separately and weighed.

[6] = system: protein kinase A; conditions: background; cited from earlier work
[7] = system: prostate glands; experiment: inhibition of prostate growth in sexually immature mice (weight of prostate glands); type: in vivo; conditions: for Dorsal Prostate weight / Coagulating Glands weight / Seminal Vesicles weight: Table 4; for Dorsal Prostate weight: TEPBS 9.8 ± 1.6; for Coagulating Glands weight: TEPBS 25.1 ± 1.6; for Seminal Vesicles weight: TEPBS 75.0 ± 5.0; for Ventral Prostate weight: mouse, in vivo, sc
Text: as §5, §6

[8] = system: Tsu-Pr1; experiment: growth inhibition of Tsu-Pr1 prostate cancer cells (calcein fluorescence); type: cell-based; conditions: Homo sapiens, TSU-Pr1, 72 h, read-out: Tsu-Pr1 IC50
Method: as §1, §2, §3, §4

[9] = system: protein kinase G; conditions: background; cited from earlier work
[10] = system: PC-3; experiment: growth inhibition of PC-3 prostate cancer cells (calcein fluorescence); type: cell-based; conditions: Homo sapiens, PC-3, 72 h, read-out: PC-3 IC50
Method: as §1, §2
Calcein AM (Molecular Probes, Eugene, Oreg.), an analog of the viable dye fluorescein diacetate, is taken up by cells and cleaved intracellularly to fluorescent salts that are retained by intact membranes of viable cells. This method thus provides a reliable and quantitative measurement of cell survival. Calcein AM was diluted 2× in Dulbeccos phosphate buffered saline (D-PBS) to 2× the final assay concentration (6 μM) and 100 μl was added to culture wells containing 100 μl of medium. The plates were then incubated for 1 hour at 37° C. Cells were then washed 4 times with D-PBS to remove excess calcein not taken up by cells. The plate was read using a Millipore plate reading fluorimeter (Cytofluor 2350) at emission=485 nm and excitation=538 nm. After subtraction of blank values (wells containing medium but no cells), relative fluorescent values reflect a quantitative measurement of cell survival. […]

[11] = system: myosin light-chain kinase; conditions: background; cited from earlier work

Compound: COC(=O)C1(O)CC2OC1(C)n1c3ccccc3c3c4c(c5c6ccccc6n2c5c31)C(=O)NC4 (stereo not drawn) [Compound I-1]
- IC50 [1]: 1200 nM
- IC50 [2]: 750 nM
- inhibitor of protein kinase C [3]: inhibitor
- inhibitor of phosphorylase kinase [4]: inhibitor
- Body Weight ([5]; 1 mg/kg s.c. daily 21 days): 32.2 ± 0.6 g
- Body Weight ([5]; 10 mg/kg s.c. daily 21 days): 30.0 ± 0.6 g
- Heart weight ([5]; 1 mg/kg s.c. daily 21 days): 164 ± 6.4 mg
- Testes weight ([5]; 1 mg/kg s.c. daily 21 days): 216 ± 6 mg
- Lung weight ([5]; 1 mg/kg s.c. daily 21 days): 229 ± 8.02 mg
- Stomach weight ([5]; 1 mg/kg s.c. daily 21 days): 288 ± 10 mg
- Kidney weight ([5]; 1 mg/kg s.c. daily 21 days): 598 ± 19 mg
- Liver weight ([5]; 1 mg/kg s.c. daily 21 days): 1921 ± 81 mg
- Heart weight ([5]; 10 mg/kg s.c. daily 21 days): 152 ± 6.58 mg
- Testes weight ([5]; 10 mg/kg s.c. daily 21 days): 204 ± 11 mg
- Lung weight ([5]; 10 mg/kg s.c. daily 21 days): 263 ± 14.8 mg
- Stomach weight ([5]; 10 mg/kg s.c. daily 21 days): 295 ± 30 mg
- Kidney weight ([5]; 10 mg/kg s.c. daily 21 days): 550 ± 18 mg
- Liver weight ([5]; 10 mg/kg s.c. daily 21 days): 1765 ± 50 mg
- inhibitor of protein kinase A [6]: inhibitor
- weight of the ventral prostates and seminal vesicles, in words ([7]; 1 mg/kg): significantly reduced the weight of the ventral prostates and seminal vesicles
- effect of the higher dose, in words ([7]; 10 mg/kg versus 1 mg/kg): did not produce any greater effect
- Dorsal Prostate weight ([7]; 1 mg/kg s.c. daily 21 days): 6.2 ± 1.3 mg
- Coagulating Glands weight ([7]; 1 mg/kg s.c. daily 21 days): 18.2 ± 2.4 mg
- Seminal Vesicles weight ([7]; 1 mg/kg s.c. daily 21 days): 61.4 ± 4.1 mg
- Dorsal Prostate weight ([7]; 10 mg/kg s.c. daily 21 days): 6.7 ± 0.7 mg
- Coagulating Glands weight ([7]; 10 mg/kg s.c. daily 21 days): 18.5 ± 1.4 mg
- Seminal Vesicles weight ([7]; 10 mg/kg s.c. daily 21 days): 66.4 ± 5.6 mg
- Ventral Prostate weight ([7]; 1 mg/kg): 7.6 ± 0.9 mg
- Ventral Prostate weight ([7]; 10 mg/kg): 8.6 ± 0.8 mg
- IC50 [8]: 210 nM
- inhibitor of protein kinase G [9]: inhibitor
- IC50 [10]: 3400 nM
- inhibitor of myosin light-chain kinase [11]: inhibitor
